A short description of the data set: Solubility of DMPA in solvents. The procedure: Solubility was tested between the various solvents to determine their applicability in the PUD manufacturing processes. Solubility is the amount of a substance (coalescing agent) that dissolves in a unit volume of a liquid substance (solvent) to form a saturated solution under specified conditions of temperature and pressure. For the examples, amounts of […] (DMPA) were dissolved in each solvent.

Consider “N-butyl pyrrolidone [NBP, reference compound]”, for which the Solubility is 20.0 g/100 g of Solvent.
